Test results as given in US10137199B2, “Thiolated hyaluronan-based hydrogels cross-linked using oxidized glutathione” (BioTime, Inc., priority 2013, dated 2018).

What was measured:
[1] = Gel formation of CMHA-S and Gelin-S with disulfide containing small molecules; type: physicochemical; conditions: thiolated biopolymers CMHA-S and Gelin-S
Protocol: Initially we tested whether GSSG would be a suitable reactant for a thiol-disulfide exchange reaction with thiolated biopolymers CMHA-S and Gelin-S to form a two-component (CMHA/Gelin/GSSG) gel with no additional crosslinking molecule (FIG. 1 where R′—SH represents Gelin-S). A gel formed in approximately three minutes using a final concentration of 4 mM GSSG and 0.4% w/v CMHA-S and 0.4% w/v Gelin-S (Sample 4, Table 1).

ADSC = experiment: Cell attachment on peptide functionalized CMHA/GSSG hydrogels, ADSC; type: cell-based, human; conditions: 15,000 cells/well, attach overnight, calcein AM
Protocol: After N-terminal maleimido-tagged peptides (Anaspec, Inc. Fremont, CCA) were resuspended in 1×PBS, 1 volume 10 mM peptide was mixed with nine volumes CMHA-S, and reaction was allowed to occur at room temperature in the dark, overnight. GSSG was added to a final concentration of 4 mM (brings peptide final concentration to 0.88 mM) and the mixture allowed to form gels in a 48-well multiwell plate. Unreacted peptides were removed by three washes of at least five volumes 1×PBS at 75 rpm 37° C., for at least 4 hr each. ADSC or BM-MSC in DMEM/10% FBS were then added to each well (15,000 cells/well in a 48 well plate) and allowed to attach overnight. On the final day, the cells were imaged by fluorescence using calcein AM stain.

Molecule	gel formation [1]	ADSC attachment (ADSC)
N[C@@H](CS)C(=O)O [cysteine]	did not cause gel formation	
CRGDS		poor robustness
OC1CSSCC1O (stereo not drawn) [oxidized DT]	did not cause gel formation	
